Source: paper PMC10343724, “Evaluation of Antimicrobial, Anticholinesterase Potential of Indole Derivatives and Unexpectedly Synthesized Novel Benzodiazine: Characterization, DFT and Hirshfeld Charge Analysis” (Molecules, 2023)
pIC50: −log10 of the molar value.

Tests used:
[1] = tested on: antibiotic-resistant strains of Staphylococcus aureus; assay: Disc diffusion assay, antibacterial activity; format: cell-based; details: clinically isolated antibiotic-resistant S. aureus
Procedure: (§1) Disc diffusion assay was performed to evaluate the antibacterial potential of compounds (8, 9, 10 and 12) against antibiotic-resistant strains of Salmonella Typhi and Staphylococcus aureus. […] Heterocyclic compounds are well-known for their antibacterial potential. A series of Benzoxazepine derivatives have shown promising antibacterial activities against Staphylococcus sciuri (zone of inhibition as 8–21 mm) and E. coli (zone of inhibition as 8–14 mm). Isoxazolyl benzo [1, 4]diazepine-5-ones have shown antibacterial against both G + ve (B. subtilis, B. sphaericus, S.aureus) and G-ve bacteria (P. aeruginosa, K. aerogenes, C. violaceum).
(§2) Antibacterial activity was assessed against clinically isolated, antibiotic-resistant strains of Salmonella typhi and Staphylococcus aureus using Disk diffusion assay, as previously described. Anticholinesterase activity was also performed, as described earlier for indoles.

[2] = target: acetylcholinesterase (Homo sapiens, UniProt P22303); assay: biochemical; details: apparent value; due to solubility issues the IC50 values can be far less; read-out: IC50, acetylcholinesterase inhibition
Chain of acetylcholinesterase (P22303 32-614): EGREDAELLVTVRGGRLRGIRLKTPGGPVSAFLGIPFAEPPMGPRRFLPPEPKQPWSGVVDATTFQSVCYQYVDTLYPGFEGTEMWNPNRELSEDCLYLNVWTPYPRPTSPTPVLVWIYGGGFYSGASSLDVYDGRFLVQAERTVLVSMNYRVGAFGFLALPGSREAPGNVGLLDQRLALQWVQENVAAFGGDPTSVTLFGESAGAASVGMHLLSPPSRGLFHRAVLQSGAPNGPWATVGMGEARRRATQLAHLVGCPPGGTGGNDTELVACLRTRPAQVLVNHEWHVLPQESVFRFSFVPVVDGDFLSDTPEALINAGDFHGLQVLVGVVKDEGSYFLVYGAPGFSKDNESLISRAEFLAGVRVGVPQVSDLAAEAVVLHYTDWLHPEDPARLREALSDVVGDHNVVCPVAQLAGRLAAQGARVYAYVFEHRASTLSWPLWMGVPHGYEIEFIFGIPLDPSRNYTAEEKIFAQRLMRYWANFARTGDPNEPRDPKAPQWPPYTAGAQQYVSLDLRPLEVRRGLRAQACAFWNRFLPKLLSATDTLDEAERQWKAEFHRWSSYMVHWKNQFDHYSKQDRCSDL
Procedure: (§3) Azine derivatives, benzoxazepines and benzodiazepines show various biological activities, including antibacterial, antifungal, and anticholinesterase activities. This makes benzo-diazine an excellent candidate for exploration of its potential for cholinesterase inhibition and antimicrobial activities.
as §2

[3] = Solubility behaviour in the anticholinesterase reaction mixture; format: physicochemical; details: anticholinesterase assay reaction mixture
Excerpt: as §3

[4] = tested on: antibiotic-resistant strains of Salmonella Typhi; assay: Disc diffusion assay, antibacterial activity; format: cell-based; details: clinically isolated antibiotic-resistant S. Typhi
Procedure: as §1, §2

COc1cc(OC)c2c(-c3ccccc3)c(-c3ccccc3)[nH]c2c1C(=O)C(Cl)(Cl)Cl [Compound 8, 7-Trichloro-acetyl-4,6-Dimethoxy-2,3-Diphenyl-1H-Indole]
zone of inhibition (ZOI) [1]: ~ 18 mm
pIC50 [2]: 5.14

COc1cc(OC)c2c(-c3ccccc3)c(-c3ccccc3)[nH]c2c1C(=O)O [Compound 9, 4,6-Dimethoxy-2,3-Diphenylindole-7-Carboxylic Acid]
precipitation in the reaction mixture [3]: precipitated even at lower concentrations
zone of inhibition (ZOI) [1]: ~21 mm

COc1cc(OC)c2c(-c3ccccc3)c(-c3ccccc3)[nH]c2c1C(N)=O [Compound 10, 4,6-Dimethoxy-2,3-Diphenyl-1H-Indole-7-Carboxamide]
zone of inhibition (ZOI) [1]: ~17 mm

COC(=O)C(C)Oc1nc(-c2ccccc2)nc2c(C(=O)c3ccccc3)c(OC)cc(OC)c12 (stereo not drawn) [Compound 12, 8-Benzoyl-5,7-Dimethoxy-4-(1‴-Methyoxycarbonylethoxy)-2-Phenyl-1,3-Benzodiazine]
precipitation in the reaction mixture [3]: precipitated even at lower concentrations
zone of inhibition (ZOI) [4]: ~ 13 mm
zone of inhibition (ZOI) [1]: ~20 mm
pIC50 [2]: 5.21
